These results are taken from ChEMBL document CHEMBL1129685, “Mechanism-based inhibition of L-pipecolate oxidase by 4,5-dehydro-L-pipecolic acid” (J Med Chem, 1996).

The structures appear in SMILES notation.

This assay deals with T1, Peroxisomal sarcosine oxidase (Homo sapiens) (UniProt Q9P0Z9).
T1 sequence (whole entry): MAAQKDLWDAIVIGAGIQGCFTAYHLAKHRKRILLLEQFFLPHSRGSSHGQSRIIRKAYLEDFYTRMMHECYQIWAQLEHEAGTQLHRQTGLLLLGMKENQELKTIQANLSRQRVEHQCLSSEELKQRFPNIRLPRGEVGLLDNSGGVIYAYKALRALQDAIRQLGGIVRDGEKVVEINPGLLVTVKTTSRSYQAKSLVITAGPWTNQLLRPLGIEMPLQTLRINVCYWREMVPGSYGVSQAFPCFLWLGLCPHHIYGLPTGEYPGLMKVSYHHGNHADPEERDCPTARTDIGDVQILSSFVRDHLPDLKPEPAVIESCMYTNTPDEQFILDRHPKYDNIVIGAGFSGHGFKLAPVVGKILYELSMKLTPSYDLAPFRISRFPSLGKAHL
As to the kind of experiment: Kinetic parameter inactivation constant was determined on L-pipecolate oxidase from Rhesus monkey. To be noted: Cercopithecidae; target entry is the homologue from another species.

In turn, `O=C(O)[C@@H]1CCCCN1` showed a Kiact of 2 min⁻¹.
